Experimental data: US7776558B2, “Human G protein-coupled receptor and modulators thereof for the treatment of cell death-related disorders” (Arena Pharmaceuticals, Inc., priority 2003, dated 2010)
Where no end group is shown, it is not given here.

Columns and labels:
FPR [1] = target: T1, FPR (Homo sapiens, UniProt P21462); assay: IP3 assay, HEK293 cells transiently transfected with FPR (negative control); type: cell-based; set-up: Full-Length Cloning of Human GPCRs; expressed in transfected cells; host or cells: HEK293 cells, transient; settings: not shown
T1 sequence (P21462 1-350): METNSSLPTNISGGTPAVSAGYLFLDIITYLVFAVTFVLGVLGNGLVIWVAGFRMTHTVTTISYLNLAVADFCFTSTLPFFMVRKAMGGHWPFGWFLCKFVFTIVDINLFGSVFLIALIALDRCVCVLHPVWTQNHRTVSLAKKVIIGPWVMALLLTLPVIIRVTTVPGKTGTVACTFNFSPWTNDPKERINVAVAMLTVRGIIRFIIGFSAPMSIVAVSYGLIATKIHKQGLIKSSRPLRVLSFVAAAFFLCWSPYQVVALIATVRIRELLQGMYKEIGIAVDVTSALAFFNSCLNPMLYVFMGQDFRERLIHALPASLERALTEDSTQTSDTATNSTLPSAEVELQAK

FPRL2 = target: T2, FPRL2 (Homo sapiens, UniProt P25089); assay: Pertussis toxin sensitivity of signaling, adenylate cyclase assay in HEK293 cells; type: cell-based; set-up: expressed in transfected cells; settings: pre-treated 18 to 20 hrs with 50 ng/ml pertussis toxin; 5 μM forskolin; FIG. 7
T2 sequence (P25089 1-353): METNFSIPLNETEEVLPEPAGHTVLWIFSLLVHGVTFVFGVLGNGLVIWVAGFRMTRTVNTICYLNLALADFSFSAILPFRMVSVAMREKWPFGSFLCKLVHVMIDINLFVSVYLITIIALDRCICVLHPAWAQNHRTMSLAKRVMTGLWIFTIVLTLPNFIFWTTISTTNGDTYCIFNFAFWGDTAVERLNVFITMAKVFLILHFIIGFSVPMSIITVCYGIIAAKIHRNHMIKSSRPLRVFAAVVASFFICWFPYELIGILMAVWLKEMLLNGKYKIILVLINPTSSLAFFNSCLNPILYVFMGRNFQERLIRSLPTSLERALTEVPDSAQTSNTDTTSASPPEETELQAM
Description: The pertussis toxin sensitivity of Compound 1 signalling through human FPRL2 was determined similarly.
Samples were then assessed for cAMP levels as described in Example 4, supra.

FPR [2] = target: T1, FPR; assay: [35S]GTPγS binding assay, membranes of transiently transfected CHO cells; type: biochemical; set-up: Full-Length Cloning of Human GPCRs; expressed in transfected cells; host or cells: CHO-K1 cells, transient, pCMV; plasma membranes; settings: FIG. 3 panel C; up to a dose of 10 μM
Description: The plasmids used were HA/V5 doubled tagged endogenous FPRL2 in pCMV, HA/V5 double-tagged endogenous FPRL1 in pCMV, HAN5 double-tagged endogenous FPR in pCMV, and pCMV alone (See, Example 1). Transient transfections were carried out on CHO-K1 cells. To a 15 cm dish of confluent cells, 12 μg of plasmid DNA and 60 μl Lipofectamine (Invitrogen, Carlsbad, Calif.) were added to each plate. Twenty-four hours post-infection, plasma membranes were isolated as described below. Assays were then run as described below.
“Membrane Scrape Buffer” consists of 20 mM HEPES and 10 mM EDTA, pH 7.4; “Membrane Wash Buffer” consists of […] and 0.1 mM EDTA, pH 7.4; “Binding. Buffer” consists of 20 mM HEPES, 100 mM NaCl, and 10 mM MgCl2, pH 7.4.
All materials were kept on ice throughout the procedure. Firstly, the media was aspirated from a confluent monolayer of transfected cells, followed by rinse with 10 ml cold PBS, followed by aspiration. Thereafter, 10 ml of Membrane Scrape Buffer was added to scrape cells; this was followed by transfer of cellular extract into 50 ml centrifuge tubes (centrifuged at 20,000 rpm for 17 minutes at 4° C.). […]
First, 100 μl GDP Buffer was added to each well of a Wallac Scintistrip™ (Wallac). […] The plates were then read on a Wallac 1450 using setting “Prot. #37” (as per manufacturer instructions).

FPRL1 = target: T3, FPRL1 (Homo sapiens, UniProt P25090); settings: Ying et al. 2002; cited from earlier work
T3 sequence (P25090 1-351): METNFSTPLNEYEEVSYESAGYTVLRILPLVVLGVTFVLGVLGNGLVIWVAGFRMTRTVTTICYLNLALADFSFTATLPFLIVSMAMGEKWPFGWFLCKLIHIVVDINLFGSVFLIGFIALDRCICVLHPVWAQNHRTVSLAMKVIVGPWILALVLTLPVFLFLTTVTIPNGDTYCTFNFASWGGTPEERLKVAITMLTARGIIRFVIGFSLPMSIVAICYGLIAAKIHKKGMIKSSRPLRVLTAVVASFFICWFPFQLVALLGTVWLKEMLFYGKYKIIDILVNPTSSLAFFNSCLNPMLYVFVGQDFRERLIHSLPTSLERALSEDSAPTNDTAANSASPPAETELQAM

Row | Compound | IP3 response in HEK293 cells transiently transfected with FPR (FPR [1]) | Pertussis toxin sensitivity of the inhibition of cAMP through FPRL2 (FPRL2) | Activity at FPR, promoted [35S]GTPγS binding (FPR [2]) | Use of FPRL1 as receptor (FPRL1)
1 | CC(C)c1ccc2c(c1)CCC1C(C)(C(N)=O)CCCC21C (stereo not shown) [Compound 1, 7-Isopropyl-1,4a-dimethyl-1,2,3,4,4a,9,10,10a-octahydro-phenanthrene-1-carboxylic acid amide] | no IP3 response | pertussis sensitive | – | –
2 | CC[C@H](C)[C@H](NC(=O)[C@H](CCC(=O)O)NC(=O)[C@H](CO)NC(=O)[C@@H](NC(=O)[C@H](CC(C)C)NC(=O)[C@H](CC(C)C)NC(=O)[C@H](CC(C)C)NC(=O)[C@H](CC(C)C)NC(=O)[C@H](CS)NC(=O)[C@H](CO)NC(=O)[C@H](Cc1ccccc1)NC(=O)CNC(=O)[C@H](CCCNC(=N)N)NC(=O)[C@@H]1CCCN1C(=O)[C@H](C)NC(=O)[C@@H](N)CCSC)[C@@H](C)O)C(=O)N[C@@H](CC(=O)O)C(=O)N[C@@H](CC(C)C)C(=O)N1CCC[C@H]1C(=O)N[C@H](C(=O)N[C@@H](CCCCN)C(=O)N[C@@H](CCCNC(=N)N)C(=O)N[C@@H](CCCNC(=N)N)C(=O)N[C@@H](C)C(=O)O)C(C)C [Humanin] | no IP3 response | pertussis sensitive | Neither Humanin nor [Gly14]-Humanin evidence significant activity | uses FPRL1 as a functional receptor
3 | MAPRGFSCLLLLTGEIDLPVKRRA [[Gly14]-Humanin] | – | – | Neither Humanin nor [Gly14]-Humanin evidence significant activity | –
